In patent US11771694B2, “Arylamide compounds for treatment and prevention of viral infections” (priority 2020, dated 2023):
≈ marks a conversion by molar mass, not a printed value. Where “and” joins values, the source holds several entries; their conditions need not be identical. Equal entries are not always repeated. Where two headings read alike, the source gives them in different places.

Assays:
[1] = test system: SARS-CoV-2 (Washington strain 2019-nCoV/USA-WA1/2020); assay: microbe, parasite or virus in culture; assay type: cell-based; details: Severe acute respiratory syndrome coronavirus 2, Vero
SARS-CoV-2 [2] = assay: microbe, parasite or virus in culture; assay type: cell-based
HCoV-OC43 = assay: Virus yield reduction assay, HCoV-OC43 on RD cells; assay type: cell-based; details: Betacoronavirus 1, 48 hours post-infection
Protocol: (§1) For these assays, brilacidin was included during viruses infection and post infection stages. The EC50 values were calculated from best-fit dose response curves with variable slope in Prism 8.

HCoV-NL63 = assay: Virus yield reduction assay, HCoV-NL63 on Vero cells; assay type: cell-based; details: Human coronavirus NL63, 48 hours post-infection
Protocol: as §1

[3] = test system: Venezuelan equine encephalitis virus (VEEV) TC83; assay type: cell-based; details: U87MG cells; 10 μM; virus treated only; 24 hpi
[4] = test system: Rift Valley fever virus (RFFV); assay type: cell-based; details: Vero; 10, 25 and 50 μM; virus treated only; 24 hpi
[5] = test system: LPS-induced MCP-1 release; assay: LPS-induced MCP-1 release, NR8383 cells, ELISA; assay type: cell-based; details: Rattus norvegicus, 8-hour exposure, read-out: IC50, inhibition of LPS-induced MCP-1 release
[6] = test system: LPS-induced TNF-α release; assay: LPS-induced TNF-α release, THP-1 cells, ELISA; assay type: cell-based; details: Homo sapiens, 8-hour exposure, read-out: IC50, inhibition of LPS-induced TNF-α release
[7] = test system: Ulcerative Proctosigmoiditis/Ulcerative Proctitis (UP/UPS); assay: Phase 2 study CTIX-BRI-206 in Ulcerative Proctosigmoiditis/Ulcerative Proctitis; assay type: in vivo, human
Text: Inflammatory biomarkers IL-1β and IL-6 were reduced in colonic tissue biopsies collected at Week 6 (Day 42) compared to those biopsies collected at baseline (FIG. 20, Panel B).

[8] = test system: dextran sulfate sodium (DSS) induced colitis; assay: Mouse DSS colitis model; assay type: in vivo, mice
Entero. faecalis = assay: Broth microdilution MIC; assay type: cell-based; details: Enterococcus faecalis; Entero. faecalis; 2-3 isolates/organism; read-out: MIC
Entero. faecium (VRE) = assay: Broth microdilution MIC; assay type: cell-based; details: Enterococcus faecium; Entero. faecium (VRE); 2-3 isolates/organism; read-out: MIC
Staph. saprophyticus = assay: Broth microdilution MIC; assay type: cell-based; details: Staphylococcus saprophyticus; Staph. saprophyticus; 2-3 isolates/organism; read-out: MIC
Staph. spp. coagulase- = assay: Broth microdilution MIC; assay type: cell-based; details: Staph. spp. coagulase-; 2-3 isolates/organism; read-out: MIC
Strept. agalactiae = assay: Broth microdilution MIC; assay type: cell-based; details: Streptococcus agalactiae; Strept. agalactiae; 2-3 isolates/organism; read-out: MIC
Strept. pneumoniae = assay: Broth microdilution MIC; assay type: cell-based; details: Streptococcus pneumoniae; Strept. pneumoniae; 2-3 isolates/organism; read-out: MIC
Strept. pyogenes = assay: Broth microdilution MIC; assay type: cell-based; details: Streptococcus pyogenes; Strept. pyogenes; 2-3 isolates/organism; read-out: MIC
Strept. viridians = assay: Broth microdilution MIC; assay type: cell-based; details: Strept. viridians; 2-3 isolates/organism; read-out: MIC
Citrobacter koseri = assay: Broth microdilution MIC; assay type: cell-based; details: 2-3 isolates/organism, read-out: MIC
Enterobacter cloacae = assay: Broth microdilution MIC; assay type: cell-based; details: 2-3 isolates/organism, read-out: MIC
Escherichia coli = assay: Broth microdilution MIC; assay type: cell-based; details: 2-3 isolates/organism, read-out: MIC
Klebsiella oxtoca = assay: Broth microdilution MIC; assay type: cell-based; details: Klebsiella oxtoca; 2-3 isolates/organism; read-out: MIC
Serratia marcescens = assay: Broth microdilution MIC; assay type: cell-based; details: 2-3 isolates/organism, read-out: MIC
[9] = test system: stationary phase cultures of MSSA and MRSA; assay: Time-kill against stationary phase cultures of MSSA and MRSA; assay type: cell-based, Staph. aureus; details: stationary phase MSSA and MRSA; 2×MIC
S. aureus = assay: microbe, parasite or virus in culture; assay type: cell-based; details: Staphylococcus aureus; value marked * = MIC90
[10] = test system: mammalian cells (RBCs, 3T3, HepG2); assay type: cell-based
SARS-CoV-2 [11] = details: Calu-3; 10 μM; 24 hpi
[12] = test system: human erythrocytes (RBCs)
in vitro = details: African green monkey
human PDE4B2 = human PDE4B2 (Homo sapiens, UniProt Q07343); assay: PDE-Glo phosphodiesterase assay, PDE4B2; details: IC50, inhibition of human PDE4B2, 1 μM cAMP substrate
[13] = test system: S. aureus and coagulase-negative staphylococci; assay: Broth microdilution MIC, defined phenotypes in Staphylococcus species
[14] = Severe acute respiratory syndrome coronavirus 2, Calu-3
[15] = brilacidin 400 mg/kg, 5-ASA 50 mg/kg per rectum, vs DSS-treated control group, end of study

Chain of human PDE4B2 (Q07343 1-564 isoform Q07343-2): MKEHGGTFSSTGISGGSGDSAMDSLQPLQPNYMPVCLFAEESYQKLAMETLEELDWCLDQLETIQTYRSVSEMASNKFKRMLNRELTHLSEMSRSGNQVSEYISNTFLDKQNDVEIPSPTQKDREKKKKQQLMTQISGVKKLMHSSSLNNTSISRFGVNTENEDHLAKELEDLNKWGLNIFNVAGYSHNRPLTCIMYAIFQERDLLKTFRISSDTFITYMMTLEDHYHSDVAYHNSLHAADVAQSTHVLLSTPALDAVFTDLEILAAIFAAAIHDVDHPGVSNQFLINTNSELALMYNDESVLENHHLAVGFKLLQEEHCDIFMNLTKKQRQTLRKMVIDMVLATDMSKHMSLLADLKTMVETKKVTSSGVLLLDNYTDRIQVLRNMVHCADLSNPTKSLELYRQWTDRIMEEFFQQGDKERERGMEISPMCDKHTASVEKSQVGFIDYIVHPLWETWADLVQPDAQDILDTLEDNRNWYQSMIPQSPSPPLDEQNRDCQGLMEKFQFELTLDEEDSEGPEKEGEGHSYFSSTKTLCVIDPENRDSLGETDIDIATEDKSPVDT

In the case of `N=C(N)NCCCCC(=O)Nc1cc(C(F)(F)F)cc(NC(=O)c2cc(C(=O)Nc3cc(C(F)(F)F)cc(NC(=O)CCCCNC(=N)N)c3OC3CCNC3)ncn2)c1OC1CCNC1` (stereo not drawn) [brilacidin], the inhibition at 10 µM ([1]; read-out: inhibition of SARS-CoV-2 (plaque assay)) is reported as 72%, the inhibition at 10 µM ([1]; read-out: inhibition of infectious viral titer) is reported as 53% and the “reduction of infectious viral titer” value (SARS-CoV-2 [2]; 10 µM) is reported as 95%. The “reduction of infectious viral titer” value (SARS-CoV-2 [2]; 20 µM) was 97%, the “Selectivity Index (CC50/IC50)” value (SARS-CoV-2 [2]; Calu-3) was 426 and the “inhibition exerted at the MOIs of 0.1 and 0.05” value (SARS-CoV-2 [2]; Calu-3, 10 μM) was “comparable to each other”. For the same compound, the “inhibition of virus at the lower MOIs” value (SARS-CoV-2 [2]; Calu-3, 10 μM, MOIs 0.01 and 0.001) was “not showing statistical significance”, the “infectious virus titer, treatment of virus alone (E, entry)” value (SARS-CoV-2 [2]; Calu-3, inoculum incubated with 5, 10 or 20 μM for 1 hour, no pre- or post-treatment of cells, Washington and Italy strains) was “marked reductions of virus titer” and the IC50 (SARS-CoV-2 [2]; [14]) was 0.565 µM. The IC90 (SARS-CoV-2 [2]; [14]) was 2.63 µM, the inhibition at 20 µM (SARS-CoV-2 [2]; Severe acute respiratory syndrome coronavirus 2, Calu-3, read-out: inhibition of infectious viral titer) was 61% and the EC50 (HCoV-OC43) was 4.81 ± 0.95 µM. For the same compound, the EC50 (HCoV-NL63) was 2.45 ± 0.052 µM, the “infectious viral titer compared to the DMSO-control” value [3] was “statistically significant reduction” and the “inhibition compared to the DMSO-control” value [4] was “dose-dependent inhibition”. The IC50 [5] was 0.75 µM, the IC50 [6] was 23.4 µM and the “inflammatory biomarkers IL-1β and IL-6 in colonic tissue biopsies” value ([7]; Week 6 (Day 42) compared to baseline) was “reduced”. The “clinical remission (with Endoscopic response), subjects” value ([7]; each cohort (50 mg, 100 mg, 200 mg daily retention enema), after 6 weeks) was over 50%, the rectal bleeding ([8]; 400 mg/kg per rectum Days 7-11, by Day 11 vs DSS-treated control group) was “significant decrease” and the stool consistency ([8]; 400 mg/kg per rectum Days 7-11, vs DSS-treated control group) was “significantly more firm”. For the same compound, the “mean reduction in IL-1β in distal colon tissue” value [8, 15] was 27%, the “mean reduction in IL-6 in distal colon tissue” value [8, 15] was 40% and the MIC (Entero. faecalis) was 1 µg/mL (≈ 1.07 µM). For the same compound, the MIC (Entero. faecium (VRE)) was 1 µg/mL (≈ 1.07 µM), the MIC (Staph. saprophyticus) was 0.25 to 0.5 µg/mL (≈ 0.267 to 0.534 µM) and the MIC (Staph. spp. coagulase-) was 0.25 to 0.5 µg/mL (≈ 0.267 to 0.534 µM). The MIC (Strept. agalactiae) was 2 µg/mL (≈ 2.13 µM), the MIC (Strept. pneumoniae) was 4 to 8 µg/mL (≈ 4.27 to 8.54 µM) and the MIC (Strept. pyogenes) was 1 to 4 µg/mL (≈ 1.07 to 4.27 µM). It also gave an MIC (Strept. viridians) of 2 to 8 µg/mL (≈ 2.13 to 8.54 µM), an MIC (Citrobacter koseri) of 1 to 2 µg/mL (≈ 1.07 to 2.13 µM) and an MIC (Enterobacter cloacae) of 0.5 to 4 µg/mL (≈ 0.534 to 4.27 µM). The MIC (Escherichia coli) was 1 to 2 µg/mL (≈ 1.07 to 2.13 µM), the MIC (Klebsiella oxtoca) was 2 to 8 µg/mL (≈ 2.13 to 8.54 µM) and the MIC (Serratia marcescens) was 32 µg/mL (≈ 34.2 µM). For the same compound, the “time-kill at >10^3 Log10 Reductions” value [9] was at most 2 hours, the MIC90 (S. aureus) was 1 µg/mL (≈ 1.07 µM) and the “folds more selective than natural HDPs” value [10] was 50 to 100 folds. The “decrease in the viral genomic copies” value (SARS-CoV-2 [11]) was 33%, the “toxicity in Calu-3 cells” value (Calu-3 cells; 10 and 20 μM, 24 hours) was “nontoxic” and the “CC10 (90% viability)” value (Calu-3 cells; Calu-3, 24 hpt, Hill model fit) was 26.8 µM. For the same compound, the “Selectivity (EC50/MIC) RBCs” value [12] was 558, the CC50 (in vitro) was 79.5 ± 2.42 µM and the IC50 (human PDE4B2) was ~3 µM and 3 µM. The “Brilacidin MIC” value ([13]; DAP-NS, OXA-R, 5 isolates) was 0.5-2, the “Brilacidin MIC” value ([13]; Drug-Susceptible, 217 isolates) was 0.25-1 and the “Brilacidin MIC” value ([13]; LZD, OXA-R, 5 isolates) was 0.5-1. For the same compound, the “Brilacidin MIC” value ([13]; OXA-R, 161 isolates) was 0.25-2, the “Brilacidin MIC” value ([13]; VRSA/VISA, DAP-NS, OXA-R, 3 isolates) was 0.5-1 and the “Brilacidin MIC” value ([13]; VRSA/VISA, OXA-R, 7 isolates) was 0.5-1.
